Data published in patent US11306094B2, “Stable formulations of 5,10-methylene-(6R)-tetrahydrofolic acid” (MERCK & CIE, priority 2016, dated 2022).
Structures can show the parent of a compound that is named as a salt. Where two headings read alike, the source gives them in different places.

Key:
[1] = physiological common salt solution, +25° C., cited from earlier work
[2] = Long-term stability of sulfate salt, HPLC content; format: physicochemical
Description: In order to compare the long-term stabilities of (6R)-5,10-CH2-THF hemisulfate salt to the long-term stabilities of (6R)-5,10-CH2-THF sulfate salt prepared according to EP 0 537 492 B1, stability data for (6R)-5,10-CH2-THF sulfate salt has been generated at various temperatures and humidities. (a) Stability of (6R)-5,10-CH2-THF Sulfate (6R)-5,10-CH2-THF sulfate salt was prepared according to literature procedures (EP 0 537 492 B1) and stored for 15 months at −20° C. Subsequently, samples of the product were stored at 5° C. resp. at 25° C. and 60% relative humidity resp. at 40° C. and 75% relative humidity. The content of (6R)-5,10-CH2-THF sulfate salt remaining in the sample was measured by HPLC at periodic intervals. The content of (6R)-5,10-CH2-THF sulfate was compared to the initial value at the time of preparation (% rel.).

[3] = Content of degradation product 10-formyltetrahydrofolic acid in sulfate salt, HPLC; format: physicochemical
Description: (b) Content of the degradation product 10-formyl-(6R)-tetrahydrofolic acid (6R)-5,10-CH2-THF sulfate salt was prepared according to literature procedures (EP 0 537 492 B1) and stored for 15 months at −20° C. Subsequently, samples of the product were stored at 5° C. resp. at 25° C. and 60% relative humidity resp. at 40° C. and 75% relative humidity. The content of 10-formyltetrahydrofolic acid, a major degradation product, was measured by HPLC at periodic intervals and disclosed as absolute values (% w/w).

[4] = after 15 months at −20° C., then 5° C., 0 months
[5] = after 15 months at −20° C., then 5° C., 6 months
[6] = after 15 months at −20° C., then 25° C./60% rh, 0 months
[7] = after 15 months at −20° C., then 25° C./60% rh, 6 months
[8] = after 15 months at −20° C., then 40° C./75% rh, 0 months
[9] = after 15 months at −20° C., then 40° C./75% rh, 6 months

## Nc1nc2c(c(=O)[nH]1)N1CN(c3ccc(C(=O)N[C@@H](CCC(=O)O)C(=O)O)cc3)C[C@H]1CN2 (mixture of isomers) [5,10-methylene-(6R,S)-tetrahydrofolic acid]
[1]; with the exclusion of air, 0 hours
  % relative stability: 100.0%
[1]; with the exclusion of air, 4.0 hours
  % relative stability: 58.0%
[1]; with the exclusion of air, 24.0 hours
  % relative stability: 38.0%
[1]; with the exclusion of air, 26.0 hours
  % relative stability: 18.0%
[1]; with the exclusion of air, 48.0 hours
  % relative stability: 8.0%
[1]; without the exclusion of air, 0 hours
  % relative stability: 100.0%
[1]; without the exclusion of air, 4.0 hours
  % relative stability: 84%
[1]; without the exclusion of air, 24.0 hours
  % relative stability: 12.0%
[1]; without the exclusion of air, 26.0 hours
  % relative stability: 8.0%
[1]; without the exclusion of air, 48.0 hours
  % relative stability: 6.0%

## Nc1nc2c(c(=O)[nH]1)N1CN(c3ccc(C(=O)N[C@@H](CCC(=O)O)C(=O)O)cc3)C[C@H]1CN2 [(6R)-5,10-CH2-THF sulfate salt, 5,10-methylene-(6R)-tetrahydrofolic acid]
[2]; [4]
  (6R)-5,10-CH2—THF sulfate (% rel.): 98.7 % rel.
[2]; [5]
  (6R)-5,10-CH2—THF sulfate (% rel.): 97.3 % rel.
[2]; [6]
  (6R)-5,10-CH2—THF sulfate (% rel.): 98.7 % rel.
[2]; [7]
  (6R)-5,10-CH2—THF sulfate (% rel.): 95.5 % rel.
[2]; [8]
  (6R)-5,10-CH2—THF sulfate (% rel.): 98.7 % rel.
[2]; [9]
  (6R)-5,10-CH2—THF sulfate (% rel.): 95.0 % rel.
[2]; −20° C., 0 months
  (6R)-5,10-CH2—THF sulfate (% rel.): 100.0 % rel.
[2]; −20° C., 15 months
  (6R)-5,10-CH2—THF sulfate (% rel.): 98.7 % rel.
[3]; [4]
  10-formyltetrahydrofolic acid (% w/w): 1.37 % w/w
[3]; [5]
  10-formyltetrahydrofolic acid (% w/w): 1.47 % w/w
[3]; [6]
  10-formyltetrahydrofolic acid (% w/w): 1.37 % w/w
[3]; [7]
  10-formyltetrahydrofolic acid (% w/w): 1.89 % w/w
[3]; [8]
  10-formyltetrahydrofolic acid (% w/w): 1.37 % w/w
[3]; [9]
  10-formyltetrahydrofolic acid (% w/w): 2.36 % w/w
[3]; −20° C., 0 months
  10-formyltetrahydrofolic acid (% w/w): 0.53 % w/w
[3]; −20° C., 15 months
  10-formyltetrahydrofolic acid (% w/w): 1.37 % w/w
